In one test the test system is RKO (Colon carcinoma). In words: FMCA cytotoxicity, RKO. The class given is cell-based, human. The following applies: Homo sapiens, 72 h. The method, then:
(§1) The inventors also set out to characterize activity of the compounds A, B and C in cell lines representing cancer of different origin. The specific assays used and the conclusions from the mechanistic evaluation have previously been described in detail (Zhang et al. 2014). Compounds A, B and C (See FIG. 4) were evaluated for cytotoxicity expressed as survival index (SI) in six human tumor cell lines using the cell based fluorometric micro culture cytotoxicity assay (FMCA) as previously described in detail (Lindhagen et al, 2008). The method is based on measurement of fluorescent fluorescein, generated from hydrolysis of FDA by viable cells with intact plasma membrane. The fluorescence is proportional to the number of intact viable cells.
(§2) The cell lines were cultivated in the respective cell medium recommended by the provider. The medium was supplemented with 10% heat-inactivated fetal bovine serum, 2 mmol/L L-glutamine, 100 μg/mL streptomycin and 100 U/mL penicillin (all from Sigma-Aldrich). The cell line was cultured at 37° C. in a humidified atmosphere containing 5% CO2.
(§3) FMCA analysis in brief, 2500 cells per well were seeded into 384-well microplates and incubated over night before treatment with compounds. Compounds were added using acoustic liquid transfer (Echo 550, LabCyte). The plates were incubated at 37° C. for 72 h, and then washed and FDA was added to the wells followed by 50 min of incubation at 37° C. The fluorescence, which is proportional to the number of living cells in each well, was measured at 485/520 nm in a Fluoroskan instrument (Labsystems, GMI, Ramsey, Minn.). Cell survival is presented as Survival Index (SI), defined as the fluorescence value in the compound-treated wells analysed as percentage of the value in the control wells, with blank values subtracted. Quality criteria included a signal/blank ratio >10 and a coefficient of variation (CV) in control and blank wells <30%. Graph Pad Prism (San Diego, Calif., USA). All experiments were performed twice, and each concentration was evaluated in quadruplicates in each experiment. […]

For test [1], the system named is CCRF-CEM (Acute lymphoblastic leukemia). In words: FMCA cytotoxicity, CCRF-CEM. In kind it is cell-based, human. The settings on record: Homo sapiens, 72 h. The protocol: as §1, §2, §3
Test [2] has as its system HepG2 (Hepatocellular Carcinoma). Put plainly: FMCA cytotoxicity, HepG2. The class given is cell-based, human. The settings on record: Homo sapiens, 72 h. The protocol:
as §1, §2, §3

A further test deals with HCT116 (Colon carcinoma). Put plainly: FMCA cytotoxicity, HCT116. In kind it is cell-based, human. The settings on record: Homo sapiens, HCT-116, 72 h. The protocol: as §1, §2, §3
Test [3] relates to six human tumor cell lines. Put plainly: FMCA cytotoxicity, six human tumor cell lines (overall). In kind it is cell-based. The following applies: Table 6 and FIG. 4. The method, then: as §1, §2, §3
In test [4] the test system is HeLa (Cervix Adenocarcinoma). Put plainly: FMCA cytotoxicity, HeLa. In kind it is cell-based, human. The following applies: Homo sapiens, 72 h. The method, then:
as §1, §2, §3

Test [5] has as its system THP-1 (Acute Monocytic Leukemia). Put plainly: FMCA cytotoxicity, THP-1. The class given is cell-based, human. The following applies: Homo sapiens, 72 h. The protocol: as §1, §2, §3

As a reminder, the IC50 is the point on the concentration scale where inhibition reaches its midpoint. Take `CC/C(=N\Nc1nnc2c(n1)[nH]c1c(C)cccc12)c1ccccn1` [Compound B, 2-[(1E)-1-(2-{6-methyl-5H-[1,2,4]triazino[5,6-b]indole-3-yl}hydrazin-1-ylidene)propyl]pyridine]: the IC50 in the test on RKO (Colon carcinoma) is less than 250 nM; in test [1], less than 250 nM; in test [2], less than 250 nM; in the test with HCT116 (Colon carcinoma) it was approximately 1000 nM; in test [4], approximately 20000 nM; in test [5], less than 250 nM. In addition, the “activity on cancer cell lines” value in test [3] was “strong activity”.

With `Cc1cccc2c1[nH]c1nc(NN=C(CC(C)(C)C)c3ccccn3)nnc12` [Compound C, 2-(3,3-dimethyl-N-{6-methyl-5H-[1,2,4]triazino[5,6-b]indole-3-yl}butanehydrazonoyl)pyridine], the concentration for half-maximal inhibition (IC50) was less than 250 nM in the test on RKO (Colon carcinoma); less than 250 nM in test [1]; less than 250 nM in test [2]; approximately 1000 nM in the test with HCT116 (Colon carcinoma); approximately 10000 nM in test [4]; less than 250 nM in test [5]. Further, in test [3], the “activity on cancer cell lines” value is “strong activity”.

The record behind these values is patent publication US10668056B2, “Pharmaceutical composition comprising indole derivatives, process for preparation and use thereof” (VIVOLUX AB, priority 2015, dated 2020).
